According to US20240254119A1 (THIRD HARMONIC BIO, INC., priority 2022, published 2024):

Legend:
Kinetic solubility assay = assay type: physicochemical; settings: for Solubility (μM): kinetic solubility, 50 mM PB (pH 7.4), shaken 24 hours at RT
Method in brief: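 Test compounds from 10 mM DMSO stock were diluted in 50 mM phosphate buffer, pH 7.4, and shaken for 24 h at RT. After PTFE filtration and centrifugation, filtrate concentration was quantified by UPLC-UV/HPLC-UV against a standard curve.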

CYP3A4 = assay: Hepatocyte CYP induction assay, CYP3A4 gene expression; assay type: in vitro ADME; settings: human hepatocytes
Procedure: Exemplary compounds were tested for ability to induce CYP3A4 and/or CYP1A2 in hepatocytes. Procedures and results are described below.
Cryopreserved human hepatocytes were purchased from BioIVT (Baltimore, MD, USA), and they were stored in liquid nitrogen before using. The detailed information of hepatocytes is as follows:
Fresh dosing solutions of test compounds, and Rifampicin were prepared in the incubation medium on the day of dosing.
Cryopreserved hepatocytes were thawed and counted to determine yield, viability was measured. Hepatocytes at the concentrations of 0.7 million/mL were transferred to collagen-coated 96-well plates for attachment (0.1 mL viable cells/well). After allowing 4 to 5 hours for attachment of cells, the plating medium was replaced with Incubation Medium containing 2% (v/v) Matrigel™ (sandwich medium) and the hepatocytes were incubated until use.
All incubations were conducted at 37° C., 5% CO2, and saturated humidity.
The sandwich medium was removed and the hepatocytes were treated with incubation solutions containing test articles in vehicle (0.1% DMSO), or positive control for 24 hours after the cultures were established. The incubation solution was aspirated and replaced with incubation solution containing the same concentrations of test articles, vehicle, or positive controls for an additional 24 hours. The total treatment period was 48 hours. Triplicate were used for each concentration of test compound and positive control.
After treatment period of 48 hours, the incubation solution was aspirated. Hepatocytes were washed once with pre-warmed HBSS and incubated with 140 μL of RLT (lysis buffer from Rneasy 96 Kit) supplemented with 1% β-mercaptoethanol. Plates were then stored at ≤−60° C. freezer until RNA analysis.
Before RNA extraction, the frozen plate was thawed and cell lysates were transferred to 96-well plates. RNA isolation was performed using QIAcube HT System. RNA concentration was measured with NanoDrop ND-2000 spectrophotometer. The purity of RNA preparation was calculated by the ratio of the OD260 nm/OD280 nm and the acceptable range is between 1.8 and 2.2. Reverse transcription was performed to obtain cDNA. Quantification of the selective genes by real time quantitative Polymerase Chain Reaction (qPCR) was performed with TaqMan universal PCR Master Mix on the BIO-RAD CFX 384 Touch Real Time PCR System. The following setting were used: 50° C. for 2 minutes, 95° C. for 10 minutes, 40 cycles of 95° C. for 15 seconds and 60° C. for 1 minute. 18S rRNA was used as the internal standard.
To account for variation in RNA yields and reverse transcription polymerase chain reaction (RT-PCR), the gene of interest in all samples was normalized to an internal control gene (18S ribosomal RNA) (Cttarget gene−Ct18S=ΔCt).
The relative quantitation or change in mRNA level of selected genes induced by each test compound was expressed in relation to the vehicle control sample (Δctcompound−ΔCtvehicle=ΔΔCt). Fold changes in gene expression were determined by taking 2 to the power of this value (2^−ΔΔt).
% of positive control [(fold change in treated sample)−1]/[(fold change in positive control)−1]×100

[1] = Three time point assay for plasma, brain and testes distribution after oral dosing; assay type: in vivo, rat; settings: rat, oral dosing
Procedure: Exemplary compounds were tested for distribution in plasma, brain and testes tissue following oral dosing of the compounds in rats. Procedures and results are described below.
Male SD Rats were group-housed (up to four animals/sex/cage) in polysulfone cages with certified aspen wood bedding during acclimation and study period.
Certified rodent diet and water was provided to all animals ad libitum, unless fasting for study procedures.
Appropriate amount of test article was accurately weighed and mixed with an appropriate volume of vehicle to get a clear solution or a uniform suspension; vortexing or sonication in water bath may also be need. Animals were dosed within four hours after the formulation is prepared.
For PO dosing, the dose formulation was administered via oral gavage following facility SOPs. The dose volume was determined by the animals' body weight collected on the morning of dosing day. The dose was 10 mg/kg.
Each blood collection (about 1 mL per time point at one or more of 0.5 h, 2 h, 3 h, 5.3 h, and 7 h) was performed from jugular vein or other suitable site of each animal into pre-chilled commercial EDTA-K2 tubes and placed on wet ice until centrifugation.
Blood samples were processed for plasma by centrifugation at approximately 4° C., 3,200 g for 10 min. Plasma was collected respectively and transferred into pre-labeled 96 well plate or polypropylene tubes, quick frozen over dry ice and kept at −60° C. or lower until LC-MS/MS analysis.
Rat brain was perfused with PBS to remove blood before harvest.
After perfusion, brain and testis were homogenized using homogenizing buffer (15 mM PBS (pH7.4):MeOH=2:1) at the ratio of 1:9 (1 g tissue with 9 mL buffer, the dilution ratio is 10). The brain homogenate was kept at −60° C. or lower until LC-MS/MS analysis. General sample processing procedure (brain homogenate & testis homogenate) using 96-well plate: • 1). An aliquot of 40 μL unknown sample, calibration standard, quality control and dilution quality control (if have), single blank, and double blank sample was added to the 96-well plate respectively; • 2). Each sample (except the double blank) was quenched with 400 μL of IS1 respectively (double blank sample was quenched with 400 μL of I), and then the mixture was vortex-mixed for 10 min at 800 rpm and centrifuged for 15 min at 3220×g, 4° C.; • 3). An aliquot of 50 μL supernatant was transferred to another clean 96-well plate and centrifuged for 5 min at 3220×g, 4° C., then the supernatant was directly injected for LC-MS/MS analysis.
• 1. A LC-MS/MS method for the quantitative determination of test compound in biological matrix was developed under Non-GLP compliance. • 2. A calibration curve with at least 6 non-zero calibration standards was applied for the method including LLOQ. • 3. A set of QCs consisting of low, middle, and high concentrations were applied for the method. • 4. N in 1 cassette LC-MS/MS method was developed for samples coming from different studies and the interference among all cassette analytes was evaluated during the method development. • 5. Cassette administration assay was performed if the mass difference (Δmass) among different analytes was more than 4 Da. In this case, interference evaluation was not necessary.
• 1. If sample number within a batch was ≤12, at least one set of standard curve separated with two parts through begin and end of the sequence, was included in the run, and QCs were not required. The recommended injection order was C8, C6, C4, C2, study samples, C7, C5, C3, C1. • 2. If sample number within a batch was >12, one standard curve and two sets of QCs with low, middle and high concentrations were applied for bioanalysis. Meanwhile, QCs number should be more than 5% of study sample number. • 3. Samples with the same types of matrix in different studies were quantified in one analysis run by using the developed N in 1 cassette LC-MS/MS method. • 4. […]

CSF-1R = molecular target: T1, CSF-1R (Homo sapiens, UniProt P07333); assay: HTRF biochemical assay, CSF-1R; settings: Table 4
T1 construct: purchased Invitrogen PV3249 (lot 662393N)
Procedure: (§1) Exemplary compounds were tested for ability to inhibit the phosphorylation of a peptide substrate by the tyrosine kinase wt KIT, PDGFRα, or CSF-1R. Assay procedures and results are described below.
(§2) Enzyme, substrate, and cofactors (ATP and Mn^2+) are combined in a well of a microtiter plate and incubated for 3 hours at 25° C. At the end of the incubation, the reaction is quenched by the addition of an EDTA-containing buffer.
(§3) The substrate used in the CSF-1R and PDGFRα assay is FAM-[…]-CONH2 (FAM is carboxyfluorescein). Peptide should be >95% purity. The substrate for the KIT assay is FAM-[…]-NH2.
(§4) • 1. To a well of a 384-wellplate add 5 μL of 2× enzyme buffer (or control). • 2. Add 100 nL of 100× compound. Enzyme and compound may be pre-incubated at this time if desired. • 3. Add 5 μL of 2× substrate buffer. • 4. Incubate plate at 25° C. for 3 hours. • 5. Add 10 uL of anti-phosphotyrosine antibody buffer. • 6. Read plate in BioTek Synergy Reader. Reaction Conditions for wtKIT Assay

PDGFRα = molecular target: T2, PDGFRα (Homo sapiens, UniProt P16234); assay: HTRF biochemical assay, PDGFRα; settings: Table 4, read-out: PDFGRα Biochemical IC50 avg
T2 construct: purchased Millipore 14-467 (lot 26321_ACTI)
Procedure: as §1, §2, §3, §4

[2] = test system: KIT phosphorylation in M-07e cells; assay: Cell-based KIT phosphorylation in M-07e cells by pKIT ELISA; set-up: species or system human; settings: SCF stimulation
Method in brief: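 Serum-starved M-07e cells (1 × 10^6/mL, overnight) were treated with compounds (8-point 3-fold series from 1 uM) for 2 h at 37 °C, then stimulated with 100 ng/mL SCF for 5 min. Lysate phospho-KIT was captured on anti-phospho-CD117 plates, detected with anti-pY-HRP, and read at 450 nm against a pc-KIT standard curve.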

wtKIT = molecular target: T3, wtKIT (Homo sapiens, UniProt P10721); assay: HTRF biochemical assay, wtKIT (phosphorylation of a peptide substrate); settings: Table 4
T3 construct: 1888289AM in the reaction mixtures
Method in brief: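 wtKIT (5.0 nM) phosphorylating 1 µM FAM-labelled peptide with 400 µM ATP and 10 mM MnCl2 in 100 mM HEPES pH 7.5, 1% DMSO, 3 h at 25 °C. EDTA quench; phosphopeptide detected with anti-phosphotyrosine antibody by HTRF. Enzyme titrated for 10-20% substrate conversion.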

T2 sequence (P16234 24-1089): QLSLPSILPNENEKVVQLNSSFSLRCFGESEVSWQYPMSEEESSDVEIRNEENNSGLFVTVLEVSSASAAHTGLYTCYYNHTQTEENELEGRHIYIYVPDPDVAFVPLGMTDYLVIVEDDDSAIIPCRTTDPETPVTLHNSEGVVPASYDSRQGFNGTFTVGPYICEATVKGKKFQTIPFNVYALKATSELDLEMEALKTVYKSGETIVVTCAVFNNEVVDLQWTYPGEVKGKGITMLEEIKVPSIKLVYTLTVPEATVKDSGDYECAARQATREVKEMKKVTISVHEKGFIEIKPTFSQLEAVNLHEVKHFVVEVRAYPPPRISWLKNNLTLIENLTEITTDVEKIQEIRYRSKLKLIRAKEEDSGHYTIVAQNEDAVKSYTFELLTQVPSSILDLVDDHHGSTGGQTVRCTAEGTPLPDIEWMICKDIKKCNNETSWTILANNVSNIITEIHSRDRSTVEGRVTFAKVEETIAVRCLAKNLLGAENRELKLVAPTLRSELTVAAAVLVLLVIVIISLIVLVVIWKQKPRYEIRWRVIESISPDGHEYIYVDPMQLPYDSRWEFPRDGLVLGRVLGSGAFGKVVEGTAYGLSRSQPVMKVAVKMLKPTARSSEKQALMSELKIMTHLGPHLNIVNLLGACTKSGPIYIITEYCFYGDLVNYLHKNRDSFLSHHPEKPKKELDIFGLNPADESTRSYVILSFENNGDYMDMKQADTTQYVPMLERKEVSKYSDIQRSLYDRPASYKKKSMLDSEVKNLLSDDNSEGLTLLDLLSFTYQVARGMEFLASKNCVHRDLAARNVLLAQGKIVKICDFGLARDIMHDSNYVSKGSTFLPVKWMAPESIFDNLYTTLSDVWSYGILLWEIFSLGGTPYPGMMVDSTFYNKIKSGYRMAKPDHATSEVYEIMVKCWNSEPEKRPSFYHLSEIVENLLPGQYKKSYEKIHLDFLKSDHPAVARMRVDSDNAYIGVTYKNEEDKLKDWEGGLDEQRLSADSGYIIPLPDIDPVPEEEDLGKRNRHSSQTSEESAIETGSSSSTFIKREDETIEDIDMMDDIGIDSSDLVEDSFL
T3 sequence (P10721 26-976): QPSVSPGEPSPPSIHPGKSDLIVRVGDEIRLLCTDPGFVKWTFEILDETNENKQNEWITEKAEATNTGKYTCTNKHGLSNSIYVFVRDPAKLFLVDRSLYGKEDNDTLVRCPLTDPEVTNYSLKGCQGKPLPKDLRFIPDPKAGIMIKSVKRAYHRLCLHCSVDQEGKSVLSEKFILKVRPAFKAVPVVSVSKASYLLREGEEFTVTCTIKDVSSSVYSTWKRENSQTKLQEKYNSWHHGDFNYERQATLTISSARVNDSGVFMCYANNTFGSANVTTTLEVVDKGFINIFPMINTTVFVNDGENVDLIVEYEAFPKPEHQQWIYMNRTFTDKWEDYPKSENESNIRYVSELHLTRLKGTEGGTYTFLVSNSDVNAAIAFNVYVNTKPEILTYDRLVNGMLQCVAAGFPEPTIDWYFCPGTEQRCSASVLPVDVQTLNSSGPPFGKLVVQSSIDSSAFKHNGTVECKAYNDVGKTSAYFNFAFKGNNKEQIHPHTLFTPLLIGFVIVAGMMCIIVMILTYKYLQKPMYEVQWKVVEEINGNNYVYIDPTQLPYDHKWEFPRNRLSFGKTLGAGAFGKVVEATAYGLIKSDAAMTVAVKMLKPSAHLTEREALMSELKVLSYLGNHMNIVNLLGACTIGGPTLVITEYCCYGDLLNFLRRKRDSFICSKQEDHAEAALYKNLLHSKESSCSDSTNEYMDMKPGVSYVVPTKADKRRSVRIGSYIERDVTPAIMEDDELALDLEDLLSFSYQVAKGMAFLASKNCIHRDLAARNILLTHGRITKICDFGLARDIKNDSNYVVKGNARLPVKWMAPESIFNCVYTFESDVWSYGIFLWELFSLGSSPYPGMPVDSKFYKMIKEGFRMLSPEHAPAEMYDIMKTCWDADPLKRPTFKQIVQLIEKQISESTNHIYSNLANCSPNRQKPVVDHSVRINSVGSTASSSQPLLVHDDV
T1 sequence (P07333 20-972): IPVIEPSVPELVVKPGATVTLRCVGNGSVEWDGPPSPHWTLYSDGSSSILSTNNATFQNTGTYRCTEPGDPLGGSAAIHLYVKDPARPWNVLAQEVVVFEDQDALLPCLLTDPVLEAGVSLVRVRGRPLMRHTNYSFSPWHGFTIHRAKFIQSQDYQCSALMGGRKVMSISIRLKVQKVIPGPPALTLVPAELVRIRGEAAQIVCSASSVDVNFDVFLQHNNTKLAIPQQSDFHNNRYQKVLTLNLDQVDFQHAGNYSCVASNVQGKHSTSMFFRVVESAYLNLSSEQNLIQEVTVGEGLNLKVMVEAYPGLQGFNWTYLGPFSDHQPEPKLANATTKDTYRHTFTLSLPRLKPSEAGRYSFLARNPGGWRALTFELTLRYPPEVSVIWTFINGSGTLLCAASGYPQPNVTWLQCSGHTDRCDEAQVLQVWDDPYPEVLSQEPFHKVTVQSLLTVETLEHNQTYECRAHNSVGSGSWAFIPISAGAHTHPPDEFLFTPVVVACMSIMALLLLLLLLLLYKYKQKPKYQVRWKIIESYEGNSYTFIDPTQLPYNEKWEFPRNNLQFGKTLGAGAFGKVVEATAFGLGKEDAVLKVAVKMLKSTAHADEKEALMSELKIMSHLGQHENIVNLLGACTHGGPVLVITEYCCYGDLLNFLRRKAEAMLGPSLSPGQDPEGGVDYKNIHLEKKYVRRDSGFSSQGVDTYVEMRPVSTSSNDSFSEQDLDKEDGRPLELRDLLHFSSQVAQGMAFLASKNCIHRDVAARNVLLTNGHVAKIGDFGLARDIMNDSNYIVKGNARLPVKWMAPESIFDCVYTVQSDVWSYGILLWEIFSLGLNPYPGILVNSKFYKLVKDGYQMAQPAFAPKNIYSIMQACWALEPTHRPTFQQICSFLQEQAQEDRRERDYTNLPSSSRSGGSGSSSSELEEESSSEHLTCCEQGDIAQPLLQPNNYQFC

Which “Solubility (μM)” value (Kinetic solubility assay) does the source give for `Cc1ccc(-c2noc(CC(O)C(F)F)n2)cc1NC(=O)c1cnn2ccccc12` (single isomer, unassigned) [Compound I-39] here?
Its value is “**** (a solubility less than or equal to 2 μM)”.

What about the “CYP 3A4 induction mRNA: Mean fold at 10 μM” value (CYP3A4; donor four) of the same compound?
The value was “++ (induction fold of greater than 2-fold to less than or equal to 3-fold)”.

For `COc1ccn2c(C(=O)Nc3cc(-c4noc(CC(O)C(F)F)n4)ccc3C)cnc2c1` (single isomer, unassigned) [Compound I-40], which “Solubility (μM)” value (Kinetic solubility assay) is on record?
The value was “**** (a solubility less than or equal to 2 μM)”.

What about the “CYP 3A4 induction mRNA: Mean fold at 10 μM” value (CYP3A4; donor five) of the same compound?
The value was “++ (induction fold of greater than 2-fold to less than or equal to 3-fold)”.

And the “CYP 3A4 induction mRNA: Mean fold at 10 μM” value (CYP3A4; donor one)?
Its value is “+++ (induction fold of greater than 3-fold to less than or equal to 10-fold)”.

And the Brain concentration ([1]; time point 0.5 h)?
The Brain concentration was 63.2 ng/g.

What about the Kp brain/plasma ([1]; time point 0.5 h) of the same compound?
The Kp brain/plasma was 0.09.

And the Kp testes/plasma ([1]; time point 0.5 h)?
The Kp testes/plasma was 0.17.

And the Plasma concentration ([1]; time point 0.5 h)?
The Plasma concentration was 712 ng/mL.

And the Testes concentration ([1]; time point 0.5 h)?
The Testes concentration was 123 ng/g.

And the Brain concentration ([1]; time point 2 h)?
Its Brain concentration is 144 ng/g.

And the Kp brain/plasma ([1]; time point 2 h)?
Its Kp brain/plasma is 0.08.

What about the Kp testes/plasma ([1]; time point 2 h) of the same compound?
The Kp testes/plasma was 0.32.

What about the Plasma concentration ([1]; time point 2 h) of the same compound?
Its Plasma concentration is 1770 ng/mL.

And the Testes concentration ([1]; time point 2 h)?
The Testes concentration was 568 ng/g.

What about the Brain concentration ([1]; time point 7 h) of the same compound?
Its Brain concentration is 65.4 ng/g.

What about the Kp brain/plasma ([1]; time point 7 h) of the same compound?
The Kp brain/plasma was 0.09.

What about the Kp testes/plasma ([1]; time point 7 h) of the same compound?
Its Kp testes/plasma is 0.41.

And the Plasma concentration ([1]; time point 7 h)?
Its Plasma concentration is 764 ng/mL.

And the Testes concentration ([1]; time point 7 h)?
The Testes concentration was 300 ng/g.

What does the source list for `Cc1ccc(-c2noc(C3CC(F)(F)C3)n2)cc1NC(=O)c1cnc2ccccn12` [Compound A, reference compound]?
solubility at 24 h (Kinetic solubility assay; phosphate buffer, pH 7.4, aqueous buffer, kinetic from dmso stock): ≤ 2 µM; CYP 3A4 induction mRNA: Mean fold at 10 μM (CYP3A4; donor two): +++ (induction fold of greater than 3-fold to less than or equal to 10-fold)

Which results are given for `Cc1ccc(-c2noc([C@H]3C[C@@H]3F)n2)cc1NC(=O)c1cnc2cc(CC(F)(F)F)ccn12` [Compound I-45]?
Solubility (μM) (Kinetic solubility assay): **** (a solubility less than or equal to 2 μM); CYP 3A4 induction mRNA: Mean fold at 10 μM (CYP3A4; donor four): ++ (induction fold of greater than 2-fold to less than or equal to 3-fold)

Which results are given for `COc1ccn2c(C(=O)Nc3cc(-c4noc(C5COC5)n4)ccc3C)cnc2c1` [Compound I-51]?
Solubility (μM) (Kinetic solubility assay): **** (a solubility less than or equal to 2 μM); CYP 3A4 induction mRNA: Mean fold at 10 μM (CYP3A4; donor four): ++ (induction fold of greater than 2-fold to less than or equal to 3-fold)

Which “CYP 3A4 induction mRNA: Mean fold at 10 μM” value (CYP3A4; donor four) does the source give for `COC(=O)N1CC(c2nc(-c3ccc(C)c(NC(=O)c4cnn5ccccc45)c3)no2)C1` [Compound B, reference compound] here?
Its value is “++ (induction fold of greater than 2-fold to less than or equal to 3-fold)”.

Which “CYP 3A4 induction mRNA: Mean fold at 10 μM” value (CYP3A4; donor four) does the source give for `CCCS(=O)(=O)N1CC(c2nc(-c3ccc(C)c(NC(=O)c4cnc5ccccn45)c3)no2)C1` [Compound C, reference compound] here?
The value was “+++ (induction fold of greater than 3-fold to less than or equal to 10-fold)”.

Which “Solubility (μM)” value (Kinetic solubility assay) does the source give for `Cc1ccc(-c2noc(C(O)C3CC3)n2)cc1NC(=O)c1cnc2ccccn12` (racemic) [Compound I-78] here?
The value was “**** (a solubility less than or equal to 2 μM)”.

And the IC50 (CSF-1R)?
Its IC50 is 50 to 500 nM.

And the IC50 (PDGFRα)?
Its IC50 is 500 to 5000 nM.

What about the IC50 [2] of the same compound?
Its IC50 is at most 50 nM.

And the IC50 (wtKIT)?
Its IC50 is at most 50 nM.

What does the source list for `Cc1ccc(-c2noc(C[C@H](C)O)n2)cc1NC(=O)c1cnn2ccccc12` [Compound I-80]?
Solubility (μM) (Kinetic solubility assay): * (a solubility greater than 50 μM); IC50 (CSF-1R): 50 to 500 nM; IC50 (PDGFRα): 5000 to 30000 nM; IC50 [2]: ≤ 50 nM; IC50 (wtKIT): 50 to 500 nM
